ChEMBL document CHEMBL1201862, “PubChem BioAssay data set” (2004)
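Test compounds were applied to cells in 96-well plates for 48 hours at 5 doses. Here, GI50 denotes the concentration required for 50% inhibition of growth.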 The source made the active and inactive calls. Cut-off read from the data, not from the text of the source: active = GI50 up to about 1.1 µM and inactive = higher.

Key:
Test in all cases: inhibition of tumour cell growth, NCI panel, 48 h
U-251 = test system: U-251
NCI-H522 = test system: NCI-H522
SNB-75 = test system: SNB-75
SNB-19 = test system: SNB-19
SN12C = test system: SN12C
SK-OV-3 = test system: SK-OV-3
ACHN = test system: ACHN
UACC-257 = test system: UACC-257
KM12 = test system: KM12
CAKI-1 = test system: CAKI-1
A549 = test system: A549
UO-31 = test system: UO-31
CCRF-CEM = test system: CCRF-CEM
RXF 393 = test system: RXF 393
SF-268 = test system: SF-268
Malme-3M = test system: Malme-3M
EKVX = test system: EKVX
SR = test system: SR
NCI-H226 = test system: NCI-H226
SF-539 = test system: SF-539

Measured: GI50

Nc1nnc(CCC(=O)Nc2cc(Cl)ccc2Cl)n1N
inactive: U-251 > 100 µM | NCI-H522 > 100 µM | SNB-75 > 100 µM | SNB-19 > 100 µM | SN12C > 100 µM | SK-OV-3 > 100 µM | ACHN > 100 µM | UACC-257 > 100 µM | KM12 > 100 µM | CAKI-1 > 100 µM | A549 > 100 µM | UO-31 > 100 µM | CCRF-CEM > 100 µM | RXF 393 > 100 µM | SF-268 > 100 µM | Malme-3M > 100 µM | EKVX > 100 µM | SR > 100 µM | NCI-H226 > 100 µM | SF-539 > 100 µM

Cc1cc2oc3c(ccc(=O)n3C)c(=O)c2c(C)c1Cl
inactive: U-251 38.2 µM | NCI-H522 62.7 µM | SNB-75 > 100 µM | SNB-19 71.1 µM | SN12C 48.6 µM | SK-OV-3 75.5 µM | ACHN 57.4 µM | KM12 91.4 µM | CAKI-1 67.5 µM | A549 45 µM | UO-31 73.5 µM | CCRF-CEM 38.1 µM | RXF 393 31.2 µM | SF-268 55.5 µM | Malme-3M 57.7 µM | EKVX 52 µM | SR 38.1 µM | NCI-H226 35.6 µM | SF-539 23.8 µM

N=C(NNS(=O)(=O)c1ccccc1)Oc1ccc(Cl)cc1
inactive: U-251 60.3 µM | NCI-H522 > 100 µM | SNB-75 > 100 µM | SNB-19 > 100 µM | SN12C > 100 µM | SK-OV-3 > 100 µM | ACHN > 100 µM | UACC-257 > 100 µM | KM12 > 100 µM | CAKI-1 > 100 µM | A549 > 100 µM | UO-31 > 100 µM | CCRF-CEM 38.3 µM | RXF 393 11.3 µM | SF-268 > 100 µM | Malme-3M > 100 µM | EKVX > 100 µM | SR 43.1 µM | NCI-H226 > 100 µM | SF-539 > 100 µM

C=COCCCOc1ccccc1
inactive: U-251 > 100 µM | NCI-H522 > 100 µM | SNB-19 > 100 µM | SN12C > 100 µM | ACHN > 100 µM | KM12 > 100 µM | CAKI-1 > 100 µM | A549 > 100 µM | UO-31 > 100 µM | CCRF-CEM > 100 µM | RXF 393 > 100 µM | SF-268 > 100 µM | Malme-3M > 100 µM | EKVX > 100 µM | SR > 100 µM | NCI-H226 > 100 µM | SF-539 > 100 µM

CC(C)(Br)C1(O)CCCN1C(=O)c1ccccc1 (stereo unspecified)
inactive: U-251 > 100 µM | NCI-H522 > 100 µM | SNB-75 97.5 µM | SNB-19 > 100 µM | SN12C > 100 µM | SK-OV-3 > 100 µM | ACHN > 100 µM | UACC-257 > 100 µM | KM12 > 100 µM | A549 > 100 µM | UO-31 > 100 µM | CCRF-CEM > 100 µM | RXF 393 > 100 µM | SF-268 > 100 µM | Malme-3M > 100 µM | EKVX > 100 µM | SR > 100 µM | SF-539 > 100 µM

CC(C)(C)C(=O)OCC1OC(N=[N+]=[N-])C(OC(=O)C(C)(C)C)C(OC(=O)C(C)(C)C)C1OC(=O)C(C)(C)C (stereo unspecified)
inactive: U-251 > 100 µM | NCI-H522 > 100 µM | SNB-75 > 100 µM | SNB-19 > 100 µM | SN12C > 100 µM | SK-OV-3 > 100 µM | ACHN > 100 µM | UACC-257 82.2 µM | KM12 > 100 µM | CAKI-1 > 100 µM | A549 > 100 µM | UO-31 > 100 µM | CCRF-CEM > 100 µM | RXF 393 > 100 µM | SF-268 > 100 µM | Malme-3M > 100 µM | EKVX > 100 µM | SR > 100 µM | SF-539 > 100 µM

CC(=O)/N=C1/N(/C=C2\C(=O)Oc3ccccc3C2=O)C(=O)/C(=C/c2ccc(NC(C)=O)cc2)N1C
inactive: U-251 > 100 µM | NCI-H522 47.9 µM | SNB-75 84.9 µM | SN12C > 100 µM | SK-OV-3 > 100 µM | ACHN > 100 µM | UACC-257 > 100 µM | KM12 > 100 µM | CAKI-1 > 100 µM | A549 > 100 µM | CCRF-CEM > 100 µM | RXF 393 > 100 µM | SF-268 > 100 µM | Malme-3M > 100 µM | EKVX > 100 µM | SR > 100 µM | NCI-H226 > 100 µM | SF-539 > 100 µM
